These results are taken from paper PMC7053212, “Auger radiopharmaceutical therapy targeting prostate-specific membrane antigen in a micrometastatic model of prostate cancer” (Theranostics, 2020).

Details of data set [1]: method as in PMID 27230930. The following applies: cited from earlier work.
Data set [2] concerns PSMA-positive micrometastatic PC model. Details: method as in PMID 27230930. The settings on record: 740 kBq; cited from earlier work.
In the next data set the test system is metastatic PC. More on the design: method as in PMID 23863050. The following applies: cited from earlier work.
A short description of data set [3]: Long-term toxicity evaluation and necropsy, non-tumor-bearing mice. The data set is classed as in vivo, CD1 mice. Here is the method:
Urinalysis evaluating specific gravity and urine protein levels via dipstick (Chemstrip Test Strips, Roche Diagnostics) was performed monthly for each animal. Terminal clinical and anatomic pathology was done in the Johns Hopkins Phenotyping and Comparative Pathology Core. Assessments included serum metabolic panel, blood counts, and complete necropsy with histopathology of more than 30 tissues as described previously.

The nature of data set [4]: Long-term biodistribution in normal tissues of non-tumor-bearing mice. The data set is classed as in vivo, CD1 mice. The following applies: 18.5 MBq iv, mean. Here is the method:
Comparison between tumor and kidney uptake was performed using Student's t-test.

For data set [5], the system named is epidermal growth factor receptor-positive metastatic breast cancer. More on the design: method as in PMID 24753984. The settings on record: activities up to 2.3 GBq; cited from earlier work.
Where [6] appears, read: any activity up to 111 MBq, 12 months.

Entries after “also recorded” stand apart in the source; their conditions may differ. Read-outs that look alike come from different tables or passages of the source.

For `O=C(O)CC[C@H](NC(=O)NC(CCCCNC(=O)c1ccc([211At])cc1)C(=O)O)C(=O)O` (stereo partly drawn) [^211At-PSMA-6, (2S)-2-(3-(1-carboxy-5-(4-^211At-astatobenzamido)pentyl)ureido)-pentanedioic acid], the “Maximum tolerated dose (MTD)” value in data set [1] (CD1 mice) was 37 kBq. In addition, in data set [1], the Dose-limiting toxicity entry is on record as “dose-limiting late nephrotoxicity”. For the same compound, in data set [2], the “Increase in median survival” value was around 2 fold.
On to `[Cl][223Ra][Cl]` [^223RaCl2], for which the Prolongation of survival with metastatic PC is given as 3 months.
Regarding `O=C(O)CCC(NC(=O)NC(CCCCNC(=O)c1ccc([125I])cc1)C(=O)O)C(=O)O` (stereo not shown) [^125I-DCIBzL], in data set [3] (111 MBq, necropsy at 12 months), the “Average blood urea nitrogen” value is 14.5 mg/dL and the Average creatinine is recorded as 0.4 mg/dL. For the same compound, the “Maximum tolerated dose (MTD)” value in data set [3] (CD1 mice, 12 months) is on record as “at least 111 MBq”. For the same compound, the “Maximum tolerated dose (MTD)” value in data set [3] (activities up to 111 MBq iv, 12 months) is on record as “not reached”. Further, in data set [3] (setting [6]), the Death from toxicity result was “No mouse treated with any activity of ^125I-DCIBzL died from toxicity” and the “Long-term toxicity (weight, urinalysis, necropsy)” value was “no appreciable toxicity; also recorded: no acute or long-term toxicity was noted; also recorded: no long-term toxicities were noted”. In addition, the Renal histopathology entry in data set [3] (highest activities, 12 months) is “mild renal tubule epithelial hypertrophic changes with occasional atypia”. In addition, in data set [3] (treated mice, 12 months), the “Average hemoglobin at necropsy” value turned out to be 12.8 g/dL and the “Long-term hematologic toxicity (histopathology of spleen, bone marrow, lymph nodes)” value is “not noted”. In addition, the “Late nephropathy on necropsy” value in data set [3] (up to 111 MBq, 12 months) was “no evidence of late nephropathy”. The “Changes in body weight or urine protein levels” value in data set [3] (up to 111 MBq, 12 months, vs untreated) is reported as “no consistent changes”. Moreover, in data set [4] (2 weeks), the “% Injected Dose/gram Bladder” value is 0.15 % Injected Dose/gram, the “% Injected Dose/gram Blood” value is reported as 0.01 % Injected Dose/gram, the “% Injected Dose/gram Heart” value amounted to 0.05 % Injected Dose/gram and the “% Injected Dose/gram Large intestine” value worked out at 0.05 % Injected Dose/gram. In data set [4] (2 weeks), the “% Injected Dose/gram Liver” value stood at 0.05 % Injected Dose/gram, the “% Injected Dose/gram Lung” value was determined as 0.31 % Injected Dose/gram, the “% Injected Dose/gram Muscle” value worked out at 0.05 % Injected Dose/gram and the “% Injected Dose/gram Pancreas” value is 0.07 % Injected Dose/gram. Also, in data set [4] (2 weeks), the “% Injected Dose/gram Salivary gland” value worked out at 0.13 % Injected Dose/gram, the “% Injected Dose/gram Small intestine” value was found to be 0.03 % Injected Dose/gram, the “% Injected Dose/gram Spleen” value was determined as 0.77 % Injected Dose/gram and the “% Injected Dose/gram Stomach” value was 0.05 % Injected Dose/gram. Further, in data set [4] (4 weeks), the “% Injected Dose/gram Bladder” value was 0.06 % Injected Dose/gram, the “% Injected Dose/gram Blood” value is on record as 0.00 % Injected Dose/gram, the “% Injected Dose/gram Heart” value was 0.02 % Injected Dose/gram and the “% Injected Dose/gram Large intestine” value was 0.02 % Injected Dose/gram. For the same compound, in data set [4] (4 weeks), the “% Injected Dose/gram Liver” value is recorded as 0.02 % Injected Dose/gram, the “% Injected Dose/gram Lung” value is listed as 0.12 % Injected Dose/gram, the “% Injected Dose/gram Muscle” value came out at 0.03 % Injected Dose/gram and the “% Injected Dose/gram Pancreas” value is 0.03 % Injected Dose/gram. Further, in data set [4] (4 weeks), the “% Injected Dose/gram Salivary gland” value is recorded as 0.05 % Injected Dose/gram, the “% Injected Dose/gram Small intestine” value is 0.02 % Injected Dose/gram, the “% Injected Dose/gram Spleen” value is given as 0.36 % Injected Dose/gram and the “% Injected Dose/gram Stomach” value was 0.02 % Injected Dose/gram. Besides, in data set [4] (6 weeks), the “% Injected Dose/gram Bladder” value worked out at 0.04 % Injected Dose/gram, the “% Injected Dose/gram Blood” value is listed as 0.00 % Injected Dose/gram, the “% Injected Dose/gram Heart” value amounted to 0.01 % Injected Dose/gram and the “% Injected Dose/gram Large intestine” value was determined as 0.02 % Injected Dose/gram. Further, in data set [4] (6 weeks), the “% Injected Dose/gram Liver” value was 0.01 % Injected Dose/gram, the “% Injected Dose/gram Lung” value was 0.05 % Injected Dose/gram, the “% Injected Dose/gram Muscle” value is on record as 0.02 % Injected Dose/gram and the “% Injected Dose/gram Pancreas” value worked out at 0.02 % Injected Dose/gram. Besides, in data set [4] (6 weeks), the “% Injected Dose/gram Salivary gland” value is 0.02 % Injected Dose/gram, the “% Injected Dose/gram Small intestine” value turned out to be 0.01 % Injected Dose/gram, the “% Injected Dose/gram Spleen” value is recorded as 0.10 % Injected Dose/gram and the “% Injected Dose/gram Stomach” value worked out at 0.01 % Injected Dose/gram. Further, in data set [4] (8 weeks), the “% Injected Dose/gram Bladder” value was 0.01 % Injected Dose/gram, the “% Injected Dose/gram Blood” value was 0.00 % Injected Dose/gram, the “% Injected Dose/gram Heart” value came to 0.00 % Injected Dose/gram and the “% Injected Dose/gram Large intestine” value is listed as 0.01 % Injected Dose/gram. In data set [4] (8 weeks), the “% Injected Dose/gram Liver” value was 0.00 % Injected Dose/gram, the “% Injected Dose/gram Lung” value was 0.03 % Injected Dose/gram, the “% Injected Dose/gram Muscle” value is 0.01 % Injected Dose/gram and the “% Injected Dose/gram Pancreas” value stood at 0.01 % Injected Dose/gram. Also, in data set [4] (8 weeks), the “% Injected Dose/gram Salivary gland” value was found to be 0.01 % Injected Dose/gram, the “% Injected Dose/gram Small intestine” value is reported as 0.01 % Injected Dose/gram, the “% Injected Dose/gram Spleen” value amounted to 0.05 % Injected Dose/gram and the “% Injected Dose/gram Stomach” value is listed as 0.00 % Injected Dose/gram. Also, in data set [4] (10 weeks), the “% Injected Dose/gram Bladder” value stood at 0.00 % Injected Dose/gram, the “% Injected Dose/gram Blood” value is on record as 0.00 % Injected Dose/gram, the “% Injected Dose/gram Heart” value turned out to be 0.00 % Injected Dose/gram and the “% Injected Dose/gram Large intestine” value is listed as 0.00 % Injected Dose/gram. Also, in data set [4] (10 weeks), the “% Injected Dose/gram Liver” value is listed as 0.00 % Injected Dose/gram, the “% Injected Dose/gram Lung” value was determined as 0.00 % Injected Dose/gram, the “% Injected Dose/gram Muscle” value came out at 0.00 % Injected Dose/gram and the “% Injected Dose/gram Pancreas” value is reported as 0.00 % Injected Dose/gram. Moreover, in data set [4] (10 weeks), the “% Injected Dose/gram Salivary gland” value worked out at 0.00 % Injected Dose/gram, the “% Injected Dose/gram Small intestine” value was determined as 0.00 % Injected Dose/gram, the “% Injected Dose/gram Spleen” value worked out at 0.01 % Injected Dose/gram and the “% Injected Dose/gram Stomach” value is on record as 0.00 % Injected Dose/gram. Further, in data set [4] (12 weeks), the “% Injected Dose/gram Bladder” value is recorded as 0.00 % Injected Dose/gram, the “% Injected Dose/gram Blood” value is listed as 0.00 % Injected Dose/gram, the “% Injected Dose/gram Heart” value is recorded as 0.00 % Injected Dose/gram and the “% Injected Dose/gram Large intestine” value is 0.00 % Injected Dose/gram. In addition, in data set [4] (12 weeks), the “% Injected Dose/gram Liver” value stood at 0.00 % Injected Dose/gram, the “% Injected Dose/gram Lung” value came to 0.01 % Injected Dose/gram, the “% Injected Dose/gram Muscle” value came to 0.00 % Injected Dose/gram and the “% Injected Dose/gram Pancreas” value amounted to 0.00 % Injected Dose/gram. Also, in data set [4] (12 weeks), the “% Injected Dose/gram Salivary gland” value stood at 0.00 % Injected Dose/gram, the “% Injected Dose/gram Small intestine” value was determined as 0.00 % Injected Dose/gram, the “% Injected Dose/gram Spleen” value worked out at 0.01 % Injected Dose/gram and the “% Injected Dose/gram Stomach” value is 0.00 % Injected Dose/gram.
Turning to “^111In-DTPA-hEGF: Auger RPT evaluated in a Phase I trial of epidermal growth factor receptor-positive metastatic breast cancer”, in data set [5], the MTD result was “not reached”.
